For assay [1], the system named is thapsigargin-induced IFN-g production in human whole blood. Format: cell-based.
The subject of assay [2] is thapsigargin-induced IL-2 production in human whole blood.
Setting [3] is: read-out: Analogue Activity (IC50) WB/IFNg.
[4] abbreviates: read-out: Analogue Activity (IC50) WB/IL-2.

Like-named read-outs stand apart in the source and are kept apart here. Bridge positions count the residues as written; N and C are the ends. Square brackets hold non-standard residues; d marks the D form. Peptide text beside a SMILES is read from it. 1Nal = N[C@@H](Cc1cccc2ccccc12)C(=O)O

On to `CC[C@H](C)[C@@H]1NC(=O)[C@H](CCCCN)NC(=O)[C@@H](NC(=O)[C@H](CCCCN)NC(=O)[C@@H](NC(=O)[C@H](CC(N)=O)NC(=O)[C@@H](NC(=O)[C@@H](NC(=O)[C@@H](NC(=O)CN)C(C)C)[C@@H](C)CC)[C@@H](C)CC)C(C)C)CSSC[C@@H]2NC(=O)[C@H](CCCCN)NC(=O)CNC(=O)[C@H](Cc3ccccc3)NC(=O)[C@H](CCCNC(=N)N)NC(=O)[C@H](CCSC)NC(=O)CNC(=O)[C@H](C)NC(=O)[C@H](CCCCN)NC(=O)[C@H](CCCCN)NC(=O)[C@@H]3CSSC[C@@H](C(=O)N[C@H](C(=O)N4CCC[C@H]4C(=O)N[C@@H](CCCNC(=N)N)C(=O)O)[C@@H](C)O)NC(=O)[C@H](Cc4c[nH]cn4)NC(=O)[C@H](CSSC[C@H](NC(=O)[C@H](CCC(N)=O)NC(=O)[C@H](CCCNC(=N)N)NC(=O)[C@H](CO)NC1=O)C(=O)N[C@@H](CC(C)C)C(=O)N[C@@H](CCC(=O)O)C(=O)N1CCC[C@H]1C(=O)N3)NC(=O)[C@H](CCCCN)NC(=O)CNC(=O)[C@H](CC(N)=O)NC(=O)[C@H](CCSC)NC2=O` [K38R] (H-GVIINVKCKISRQCLEPCKKAGMRFGKCMNGKCHCTPR-OH; disulfide 8-28, 14-33, 18-35), for which the IC50 in assay [1] (setting [3]) turned out to be 0.04 nM; in assay [2] (setting [4]), 0.039 nM.
As for “GVIINVKCKISRQCLEPCKKAGARFGKCMNGKCHCTPK [Ala-23 (SEQ ID No: 1419)]”, the IC50 in assay [1] (read-out: Average IC50 IFNg) and in assay [2] (read-out: Average IC50 IL-2) was 0.275 nM throughout.
Regarding `CC[C@H](C)[C@@H]1NC(=O)[C@H](CCCCN)NC(=O)[C@@H](NC(=O)[C@H](CCCCN)NC(=O)[C@@H](NC(=O)[C@H](CC(N)=O)NC(=O)[C@@H](NC(=O)[C@@H](NC(=O)[C@@H](NC(=O)CN)C(C)C)[C@@H](C)CC)[C@@H](C)CC)C(C)C)CSSC[C@@H]2NC(=O)[C@H](CCCCN)NC(=O)CNC(=O)[C@H](Cc3ccccc3)NC(=O)[C@H](CCCNC(=N)N)NC(=O)[C@H](CCSC)NC(=O)CNC(=O)[C@H](C)NC(=O)[C@H](CCCNC(=N)N)NC(=O)[C@H](CCCCN)NC(=O)[C@@H]3CSSC[C@@H](C(=O)N[C@H](C(=O)N4CCC[C@H]4C(=O)N[C@@H](CCCCN)C(=O)O)[C@@H](C)O)NC(=O)[C@H](Cc4c[nH]cn4)NC(=O)[C@H](CSSC[C@H](NC(=O)[C@H](CCC(N)=O)NC(=O)[C@H](CCCNC(=N)N)NC(=O)[C@H](CO)NC1=O)C(=O)N[C@@H](CC(C)C)C(=O)N[C@@H](CCC(=O)O)C(=O)N1CCC[C@H]1C(=O)N3)NC(=O)[C@H](CCCCN)NC(=O)CNC(=O)[C@H](CC(N)=O)NC(=O)[C@H](CCSC)NC2=O` [K20R] (H-GVIINVKCKISRQCLEPCKRAGMRFGKCMNGKCHCTPK-OH; disulfide 8-28, 14-33, 18-35), the IC50 in assay [1] (setting [3]) amounted to 0.083 nM; in assay [2] (setting [4]), 0.067 nM.
Turning to `CC[C@H](C)[C@@H]1NC(=O)[C@H](CCCCN)NC(=O)[C@@H](NC(=O)[C@H](CCCCN)NC(=O)[C@@H](NC(=O)[C@H](CC(N)=O)NC(=O)[C@@H](NC(=O)[C@@H](NC(=O)[C@@H](NC(=O)[C@@H](N)CCCNC(=N)N)C(C)C)[C@@H](C)CC)[C@@H](C)CC)C(C)C)CSSC[C@@H]2NC(=O)[C@H](CCCCN)NC(=O)CNC(=O)[C@H](Cc3ccccc3)NC(=O)[C@H](CCCNC(=N)N)NC(=O)[C@H](CCSC)NC(=O)CNC(=O)[C@H](C)NC(=O)[C@H](CCCCN)NC(=O)[C@H](CCCCN)NC(=O)[C@@H]3CSSC[C@@H](C(=O)N[C@H](C(=O)N4CCC[C@H]4C(=O)N[C@@H](CCCCN)C(=O)O)[C@@H](C)O)NC(=O)[C@H](Cc4c[nH]cn4)NC(=O)[C@H](CSSC[C@H](NC(=O)[C@H](CCC(N)=O)NC(=O)[C@H](CCCNC(=N)N)NC(=O)[C@H](CO)NC1=O)C(=O)N[C@@H](CC(C)C)C(=O)N[C@@H](CCC(=O)O)C(=O)N1CCC[C@H]1C(=O)N3)NC(=O)[C@H](CCCCN)NC(=O)CNC(=O)[C@H](CC(N)=O)NC(=O)[C@H](CCSC)NC2=O` [G1R] (H-RVIINVKCKISRQCLEPCKKAGMRFGKCMNGKCHCTPK-OH; disulfide 8-28, 14-33, 18-35), the IC50 in assay [1] (setting [3]) was 0.991 nM; in assay [2] (setting [4]), 0.554 nM.
On to `CC[C@H](C)[C@@H]1NC(=O)[C@H](CCCCN)NC(=O)[C@@H](NC(=O)[C@H](CCCCN)NC(=O)[C@@H](NC(=O)[C@H](CC(N)=O)NC(=O)[C@@H](NC(=O)[C@@H](NC(=O)[C@@H](NC(=O)CN)C(C)C)[C@@H](C)CC)[C@@H](C)CC)C(C)C)CSSC[C@@H]2NC(=O)[C@H](CCCCN)NC(=O)CNC(=O)[C@H](Cc3ccccc3)NC(=O)[C@H](CCCNC(=N)N)NC(=O)[C@H](CCSC)NC(=O)CNC(=O)[C@H](C)NC(=O)[C@H](CCCCN)NC(=O)[C@H](CCCCN)NC(=O)[C@@H]3CSSC[C@@H](C(=O)N[C@@H](CCCNC(=N)N)C(=O)N4CCC[C@H]4C(=O)N[C@@H](CCCCN)C(=O)O)NC(=O)[C@H](Cc4c[nH]cn4)NC(=O)[C@H](CSSC[C@H](NC(=O)[C@H](CCC(N)=O)NC(=O)[C@H](CCCNC(=N)N)NC(=O)[C@H](CO)NC1=O)C(=O)N[C@@H](CC(C)C)C(=O)N[C@@H](CCC(=O)O)C(=O)N1CCC[C@H]1C(=O)N3)NC(=O)[C@H](CCCCN)NC(=O)CNC(=O)[C@H](CC(N)=O)NC(=O)[C@H](CCSC)NC2=O` [T36R] (H-GVIINVKCKISRQCLEPCKKAGMRFGKCMNGKCHCRPK-OH; disulfide 8-28, 14-33, 18-35), for which the IC50 in assay [1] (setting [3]) is 10.1 nM; in assay [2] (setting [4]), 9.7 nM.
In the same order, the values of `CC[C@H](C)[C@@H]1NC(=O)[C@H](CCCCN)NC(=O)[C@@H](NC(=O)[C@H](CCCCN)NC(=O)[C@@H](NC(=O)[C@H](CC(N)=O)NC(=O)[C@@H](NC(=O)[C@@H](NC(=O)[C@@H](NC(=O)CN)C(C)C)[C@@H](C)CC)[C@@H](C)CC)C(C)C)CSSC[C@@H]2NC(=O)[C@H](CCCCN)NC(=O)CNC(=O)[C@H](Cc3ccccc3)NC(=O)[C@H](CCCNC(=N)N)NC(=O)[C@H](Cc3cccc4ccccc34)NC(=O)CNC(=O)[C@H](C)NC(=O)[C@H](CCCCN)NC(=O)[C@H](CCCCN)NC(=O)[C@@H]3CSSC[C@@H](C(=O)N[C@H](C(=O)N4CCC[C@H]4C(=O)N[C@@H](CCCCN)C(=O)O)[C@@H](C)O)NC(=O)[C@H](Cc4c[nH]cn4)NC(=O)[C@H](CSSC[C@H](NC(=O)[C@H](CCC(N)=O)NC(=O)[C@H](CCCNC(=N)N)NC(=O)[C@H](CO)NC1=O)C(=O)N[C@@H](CC(C)C)C(=O)N[C@@H](CCC(=O)O)C(=O)N1CCC[C@H]1C(=O)N3)NC(=O)[C@H](CCCCN)NC(=O)CNC(=O)[C@H](CC(N)=O)NC(=O)[C@H](CCSC)NC2=O` [M23Nal] (H-GVIINVKCKISRQCLEPCKKAG[1Nal]RFGKCMNGKCHCTPK-OH; disulfide 8-28, 14-33, 18-35) are 1.11 nM and 0.581 nM.
In the same order, the values of `CC[C@H](C)[C@@H]1NC(=O)[C@H](CCCCN)NC(=O)[C@@H](NC(=O)[C@H](CCCCN)NC(=O)[C@@H](NC(=O)[C@H](CC(N)=O)NC(=O)[C@@H](NC(=O)[C@@H](NC(=O)[C@@H](NC(=O)CN)C(C)C)[C@@H](C)CC)[C@@H](C)CC)C(C)C)CSSC[C@@H]2NC(=O)[C@H](CCCCN)NC(=O)CNC(=O)[C@H](Cc3ccccc3)NC(=O)[C@H](CCCNC(=N)N)NC(=O)[C@H](CCSC)NC(=O)CNC(=O)[C@H](C)NC(=O)[C@H](CCCCN)NC(=O)[C@H](CCCCN)NC(=O)[C@@H]3CSSC[C@@H](C(=O)N[C@H](C(=O)N4CCC[C@H]4C(=O)N[C@@H](CCCCN)C(=O)O)[C@@H](C)O)NC(=O)[C@H](Cc4c[nH]cn4)NC(=O)[C@H](CSSC[C@H](NC(=O)[C@H](CCC(N)=O)NC(=O)[C@H](CCC(=O)O)NC(=O)[C@H](CO)NC1=O)C(=O)N[C@@H](CC(C)C)C(=O)N[C@@H](CCC(=O)O)C(=O)N1CCC[C@H]1C(=O)N3)NC(=O)[C@H](CCCCN)NC(=O)CNC(=O)[C@H](CC(N)=O)NC(=O)[C@H](CCSC)NC2=O` [R12E] (H-GVIINVKCKISEQCLEPCKKAGMRFGKCMNGKCHCTPK-OH; disulfide 8-28, 14-33, 18-35) are 2 nM and 1.79 nM.
`CC[C@H](C)[C@@H]1NC(=O)[C@H](CCCCN)NC(=O)[C@@H](NC(=O)[C@H](CCCCN)NC(=O)[C@@H](NC(=O)[C@H](CC(N)=O)NC(=O)[C@@H](NC(=O)[C@@H](NC(=O)[C@@H](NC(=O)[C@@H](N)CCC(=O)O)C(C)C)[C@@H](C)CC)[C@@H](C)CC)C(C)C)CSSC[C@@H]2NC(=O)[C@H](CCCCN)NC(=O)CNC(=O)[C@H](Cc3ccccc3)NC(=O)[C@H](CCCNC(=N)N)NC(=O)[C@H](CCSC)NC(=O)CNC(=O)[C@H](C)NC(=O)[C@H](CCCCN)NC(=O)[C@H](CCCCN)NC(=O)[C@@H]3CSSC[C@@H](C(=O)N[C@H](C(=O)N4CCC[C@H]4C(=O)N[C@@H](CCCCN)C(=O)O)[C@@H](C)O)NC(=O)[C@H](Cc4c[nH]cn4)NC(=O)[C@H](CSSC[C@H](NC(=O)[C@H](CCC(N)=O)NC(=O)[C@H](CCCNC(=N)N)NC(=O)[C@H](CO)NC1=O)C(=O)N[C@@H](CC(C)C)C(=O)N[C@@H](CCC(=O)O)C(=O)N1CCC[C@H]1C(=O)N3)NC(=O)[C@H](CCCCN)NC(=O)CNC(=O)[C@H](CC(N)=O)NC(=O)[C@H](CCSC)NC2=O` [G1E] (H-EVIINVKCKISRQCLEPCKKAGMRFGKCMNGKCHCTPK-OH; disulfide 8-28, 14-33, 18-35): the IC50 in assay [1] (setting [3]) is 1.25 nM; in assay [2] (setting [4]) it was 1.22 nM.
In the same order, the values of `CC[C@H](C)[C@@H]1NC(=O)[C@H](CCCCN)NC(=O)[C@@H](NC(=O)[C@H](CCCCN)NC(=O)[C@@H](NC(=O)[C@H](CC(N)=O)NC(=O)[C@@H](NC(=O)[C@@H](NC(=O)[C@@H](NC(=O)CN)C(C)C)[C@@H](C)CC)[C@@H](C)CC)C(C)C)CSSC[C@@H]2NC(=O)[C@H](CCCCN)NC(=O)CNC(=O)[C@H](Cc3ccccc3)NC(=O)[C@H](CCCNC(=N)N)NC(=O)[C@H](CCSC)NC(=O)CNC(=O)[C@H](C)NC(=O)[C@H](CCCCN)NC(=O)[C@H](CCCCN)NC(=O)[C@@H]3CSSC[C@@H](C(=O)N[C@H](C(=O)N4CCC[C@H]4C(=O)N[C@@H](CCCCN)C(=O)O)[C@@H](C)O)NC(=O)[C@H](Cc4c[nH]cn4)NC(=O)[C@H](CSSC[C@H](NC(=O)[C@H](CCC(N)=O)NC(=O)[C@H](CCCNC(=N)N)NC(=O)[C@H](CO)NC1=O)C(=O)N[C@@H](CC(C)C)C(=O)N[C@@H](CCC(=O)O)C(=O)N[C@@H](CCCNC(=N)N)C(=O)N3)NC(=O)[C@H](CCCCN)NC(=O)CNC(=O)[C@H](CC(N)=O)NC(=O)[C@H](CCSC)NC2=O` [P17R] (H-GVIINVKCKISRQCLERCKKAGMRFGKCMNGKCHCTPK-OH; disulfide 8-28, 14-33, 18-35) are 0.355 nM and 0.202 nM.
